Reference: the supplement of paper PMC11061612

Columns and labels:
[1] = compound: CC1(C)CCC(CN2CCN(c3ccc(C(=O)NS(=O)(=O)c4ccc(NCC5CCOCC5)c([N+](=O)[O-])c4)c(Oc4cnc5[nH]ccc5c4)c3)CC2)=C(c2ccc(Cl)cc2)C1 [Venetoclax]; conditions: max 1 µM
In short: (§1)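 Viability was measured with CellTiter-Glo 2.0 luminescence after 72 hours of dosing at a final DMSO of typically 0.2%, and scaled between blank-well and DMSO-well means. Beforehand, cancer cell lines sat 24 hours at 37°C and 5% CO2 in 1536-well plates in 7.5 μl DMEM/F12 or RPMI with 10% FBS. A non-linear mixed effects model fitted two-parameter logistic curves to the dose responses. The single-agent IC50 comes from these fits.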

[2] = compound: Cc1cc2ncnn2cc1Nc1ncc2c(n1)n(C1CCOCC1)c(=O)n2C [AZD7648]; conditions: max 10 µM
In short: as §1

[3] = compound: CCc1c2c(nc3ccc(O)cc13)-c1cc3c(c(=O)n1C2)COC(=O)[C@]3(O)CC [SN-38]; conditions: max 0.3 µM
In short: as §1

[4] = compound: CC(C)n1c(=O)n(C)c2cnc3cc(F)c(-c4ccc(OCCCN5CCCCC5)nc4)cc3c21 [AZD1390]; conditions: max 0.3 µM
In short: as §1

[5] = compound: CC1=CN2[C@@H](C1)C=NC3=CC(=C(C=C3C2=O)OC)OCCCCCOC4=C(C=C5C(=C4)N=C[C@@H]6CC(=CN6C5=O)C)OC [SG3199]; conditions: max 0.001 µM
In short: as §1

[6] = compound: COc1cc(Nc2ncc3c(n2)-c2ccc(Cl)cc2C(c2c(F)cccc2OC)=NC3)ccc1C(=O)O [Alisertib]; conditions: max 10 µM
In short: as §1

[7] = compound: C=CCn1c(=O)c2cnc(Nc3ccc(N4CCN(C)CC4)cc3)nc2n1-c1cccc(C(C)(C)O)n1 [AZD1775]; conditions: max 3 µM
In short: as §1

[8] = compound: C1CN(CCC1(C(=O)N[C@@H](CCO)C2=CC=C(C=C2)Cl)N)C3=NC=NC4=C3C=CN4 [Capivasertib]; conditions: max 10 µM
In short: as §1

[9] = compound: CCN(CCO)CCCOc1ccc2c(Nc3cc(CC(=O)Nc4cccc(F)c4)[nH]n3)ncnc2c1 [AZD2811]; conditions: max 1 µM
In short: as §1

[10] = compound: CC1=C(C(=CC=C1)Cl)NC(=O)C2=CN=C(S2)NC3=CC(=NC(=N3)C)N4CCN(CC4)CCO [Dasatinib]; conditions: max 2 µM
In short: as §1

[11] = compound: C[C@@H]1COCCN1C2=NC(=NC(=C2)C3(CC3)[S@](=N)(=O)C)C4=C5C=CNC5=NC=C4 [AZD6738]; conditions: max 10 µM
In short: as §1

[12] = compound: COc1cccc(OCCCN)c1-c1cc(Nc2cnc(C#N)cn2)n[nH]1 [Prexasertib]; conditions: max 1 µM
In short: as §1

[13] = compound: Cc1c2c(nn1C)CSCc1cc(n(C)n1)CSc1cc(c3ccccc3c1)OCCCc1c(C(=O)O)n(C)c3c-2c(Cl)ccc13 [AZD5991]; conditions: max 1 µM
In short: as §1

[14] = compound: COc1nnc2ccc(N3CCC(c4ccc(OCCN5CCN(C)C(=O)[C@H]5C)cc4)CC3)nn12 [AZD5153]; conditions: max 1 µM
In short: as §1

[15] = compound: O=C(c1cc(Cc2n[nH]c(=O)c3ccccc23)ccc1F)N1CCN(C(=O)C2CC2)CC1 [Olaparib]; conditions: max 10 µM
In short: as §1

[16] = compound: Cn1cnc2c(F)c(Nc3ccc(Br)cc3Cl)c(C(=O)NOCCO)cc21 [Selumetinib]; conditions: max 10 µM
In short: as §1

[17] = compound: C[C@@H](Oc1cc(-c2cnn(C3CCNCC3)c2)cnc1N)c1c(Cl)ccc(F)c1Cl [Crizotinib]; conditions: max 10 µM
In short: as §1

[18] = compound: COc1cccc2c1C(=O)c1c(O)c3c(c(O)c1C2=O)C[C@@](O)(C(=O)CO)C[C@@H]3O[C@H]1C[C@H](N)[C@H](O)[C@H](C)O1 [Doxorubicin]; conditions: max 1 µM
In short: as §1

[19] = compound: CN(C)CCCOc1ccc(-c2ccc3ncc4c(c3c2)n(C2CCOCC2)c(=O)n4C)cn1 [AZD0156]; conditions: max 3 µM
In short: as §1

[20] = compound: Cc1nc(-c2cn3c(n2)-c2ccc(-c4cnn(C(C)(C)C(N)=O)c4)cc2OCC3)n(C(C)C)n1 [Taselisib]; conditions: max 10 µM
In short: as §1

[21] = compound: C[C@@H](c1ccc2nccn2c1)n1nnc2ncc(-c3cnn(C)c3)nc21 [Savolitinib]; conditions: max 1 µM
In short: as §1

[22] = compound: CN(CC[C@H](CSC1=CC=CC=C1)NC2=C(C=C(C=C2)S(=O)(=O)NC(=O)C3=CC=C(C=C3)N4CCC(CC4)[C@H](C5=CC=CC=C5C6=CC=C(C=C6)Cl)O)S(=O)(=O)C(F)(F)F)CCO [AZD4320]; conditions: max 1 µM
In short: as §1

[23] = compound: CC(=O)c1c(C)c2cnc(Nc3ccc(N4CCNCC4)cn3)nc2n(C2CCCC2)c1=O [Palbociclib]; conditions: max 10 µM
In short: as §1

[24] = compound: NC1(c2ccc(-c3nc4ccn5c(=O)[nH]nc5c4cc3-c3ccccc3)cc2)CCC1 [MK-2206]; conditions: max 10 µM
In short: as §1

[25] = compound: CC(=O)Nc1cccc(-n2c(=O)n(C3CC3)c(=O)c3c(Nc4ccc(I)cc4F)n(C)c(=O)c(C)c32)c1 [Trametinib]; conditions: max 1 µM
In short: as §1

[26] = compound: C[C@@H](Nc1cc(F)cc(F)c1)c1cc(C(=O)N(C)C)cc2c(=O)cc(N3CCOCC3)oc12 [AZD8186]; conditions: max 3 µM
In short: as §1

[27] = compound: COc1cc2ncnc(Nc3ccc(F)c(Cl)c3)c2cc1OCCCN1CCOCC1 [Gefitinib]; conditions: max 10 µM
In short: as §1

[28] = compound: CS(=O)(=O)CCNCc1ccc(-c2ccc3ncnc(Nc4ccc(OCc5cccc(F)c5)c(Cl)c4)c3c2)o1 [Lapatinib]; conditions: max 10 µM
In short: as §1

Row | Cell Line | IC50, cell viability 72 h [1] [nM] | IC50, cell viability 72 h [2] [µM] | IC50, cell viability 72 h [3] [nM] | IC50, cell viability 72 h [4] [nM] | IC50, cell viability 72 h [5] [nM] | IC50, cell viability 72 h [6] [µM] | IC50, cell viability 72 h [7] [nM] | IC50, cell viability 72 h [8] [µM] | IC50, cell viability 72 h [9] [nM] | IC50, cell viability 72 h [10] [nM] | IC50, cell viability 72 h [11] [µM] | IC50, cell viability 72 h [12] [nM] | IC50, cell viability 72 h [13] [nM] | IC50, cell viability 72 h [14] [nM] | IC50, cell viability 72 h [15] [µM] | IC50, cell viability 72 h [16] [µM] | IC50, cell viability 72 h [17] [µM] | IC50, cell viability 72 h [18] [nM] | IC50, cell viability 72 h [19] [nM] | IC50, cell viability 72 h [20] [µM] | IC50, cell viability 72 h [21] [nM] | IC50, cell viability 72 h [22] [nM] | IC50, cell viability 72 h [23] [µM] | IC50, cell viability 72 h [24] [µM] | IC50, cell viability 72 h [25] [nM] | IC50, cell viability 72 h [26] [nM] | IC50, cell viability 72 h [27] [µM] | IC50, cell viability 72 h [28] [µM]
1 | B-CPAP (Thyroid Gland Carcinoma) | > 1000 | > 10 | 25 | > 300 | > 1 | 6.62 | 1420 | > 10 | > 1000 | 324 | > 10 | 149 | > 1000 | 379 | > 10 | > 10 | > 10 | 608 | > 3000 | > 10 | > 1000 | > 1000 | > 10 | > 10 | > 1000 | > 3000 | > 10 | > 10
2 | HCC1806 (Breast Carcinoma) | > 1000 | > 10 | 12.1 | > 300 | > 1 | > 10 | 271 | > 10 | > 1000 | 414 | 1.08 | 6.18 | > 1000 | 301 | > 10 | > 10 | 9.23 | 258 | > 3000 | 7.68 | > 1000 | > 1000 | > 10 | > 10 | > 1000 | > 3000 | > 10 | 6.2
3 | HuP-T4 (Pancreatic Carcinoma) | > 1000 | > 10 | 8.7 | > 300 | > 1 | > 10 | 1000 | > 10 | > 1000 | > 2000 | > 10 | 175 | > 1000 | > 1000 | > 10 | > 10 | > 10 | 946 | > 3000 | > 10 | > 1000 | > 1000 | > 10 |  | > 1000 | > 3000 | > 10 | > 10
4 | KP-1N (Pancreatic Carcinoma) | > 1000 | > 10 | > 300 | > 300 | > 1 | > 10 | > 3000 | > 10 | > 1000 | > 2000 | > 10 | > 1000 | > 1000 | > 1000 | > 10 | > 10 | > 10 | > 1000 | > 3000 | > 10 | > 1000 | > 1000 | > 10 |  | > 1000 | > 3000 | > 10 | > 10
5 | KYSE-520 (Esophageal Squamous Cell Carcinoma) | > 1000 | > 10 | > 300 | > 300 | > 1 | > 10 | > 3000 | > 10 | > 1000 | 233 | > 10 | 116 | > 1000 | 278 | > 10 | > 10 | > 10 | > 1000 | > 3000 | 1.25 | > 1000 | > 1000 | > 10 |  | 181 | > 3000 | 3.92 | 3.08
6 | LNCaP-Clone-FGC (Prostate Carcinoma) | > 1000 | > 10 | 30.8 | > 300 | > 1 | > 10 | 811 | 0.134 | > 1000 | > 2000 | 3.58 | 35.6 | > 1000 | 94.4 | > 10 | > 10 | 8.7 | 170 | > 3000 | 0.957 | > 1000 | > 1000 | > 10 |  | > 1000 | 129 | > 10 | > 10
7 | LU-135 (Small Cell Lung Carcinoma) | > 1000 | > 10 | 27.9 | > 300 | > 1 | 0.317 | 1840 | > 10 | 25.7 | > 2000 | 6.1 | 343 | > 1000 | 66.1 | > 10 | > 10 | 2.59 | 214 | > 3000 | > 10 | > 1000 | 17.6 | > 10 |  | > 1000 | > 3000 | > 10 | 9.73
